Data as given in the NIST ThermoML archive (doi:10.1016/j.tca.2005.11.024).
± gives the expanded uncertainty stated by the source.

Legend:
[1] = molar heat capacity at constant pressure; conditions: 101.33 kPa, Small sample (50 mg) DSC
[2] = Molar enthalpy of transition or fusion; conditions: DSC
[3] = DTA

## O=S1(=O)CCSCC1 [1,4-dithiane sulfone]
[1]; 268.15 K, Crystal
  molar heat capacity at constant pressure: 141 ± 2.8 J/K/mol
[1]; 270.15 K, Crystal
  molar heat capacity at constant pressure: 141.7 ± 2.8 J/K/mol
[1]; 275.15 K, Crystal
  molar heat capacity at constant pressure: 143.8 ± 2.9 J/K/mol
[1]; 280.15 K, Crystal
  molar heat capacity at constant pressure: 145.9 ± 2.9 J/K/mol
[1]; 285.15 K, Crystal
  molar heat capacity at constant pressure: 148.1 ± 3 J/K/mol
[1]; 290.15 K, Crystal
  molar heat capacity at constant pressure: 149.8 ± 3 J/K/mol
[1]; 295.15 K, Crystal
  molar heat capacity at constant pressure: 151.8 ± 3 J/K/mol
[1]; 298.15 K, Crystal
  molar heat capacity at constant pressure: 152.7 ± 3.1 J/K/mol
[1]; 300.15 K, Crystal
  molar heat capacity at constant pressure: 153.5 ± 3.1 J/K/mol
[1]; 305.15 K, Crystal
  molar heat capacity at constant pressure: 155.6 ± 3.1 J/K/mol
[1]; 310.15 K, Crystal
  molar heat capacity at constant pressure: 158.1 ± 3.2 J/K/mol
[1]; 315.15 K, Crystal
  molar heat capacity at constant pressure: 160.5 ± 3.2 J/K/mol
[1]; 320.15 K, Crystal
  molar heat capacity at constant pressure: 163 ± 3.3 J/K/mol
[1]; 325.15 K, Crystal
  molar heat capacity at constant pressure: 165.5 ± 3.3 J/K/mol
[1]; 330.15 K, Crystal
  molar heat capacity at constant pressure: 167.5 ± 3.4 J/K/mol
[1]; 335.15 K, Crystal
  molar heat capacity at constant pressure: 168.9 ± 3.4 J/K/mol
[1]; 340.15 K, Crystal
  molar heat capacity at constant pressure: 171 ± 3.4 J/K/mol
[1]; 345.15 K, Crystal
  molar heat capacity at constant pressure: 173 ± 3.5 J/K/mol
[1]; 350.15 K, Crystal
  molar heat capacity at constant pressure: 175.1 ± 3.5 J/K/mol
[1]; 355.15 K, Crystal
  molar heat capacity at constant pressure: 177.4 ± 3.5 J/K/mol
[1]; 360.15 K, Crystal
  molar heat capacity at constant pressure: 179.5 ± 3.6 J/K/mol
[1]; 365.15 K, Crystal
  molar heat capacity at constant pressure: 181.6 ± 3.6 J/K/mol
[1]; 370.15 K, Crystal
  molar heat capacity at constant pressure: 184.4 ± 3.7 J/K/mol
[1]; 375.15 K, Crystal
  molar heat capacity at constant pressure: 186.2 ± 3.7 J/K/mol
[1]; 380.15 K, Crystal
  molar heat capacity at constant pressure: 189.1 ± 3.8 J/K/mol
[1]; 385.15 K, Crystal
  molar heat capacity at constant pressure: 191.2 ± 3.8 J/K/mol
[1]; 390.15 K, Crystal
  molar heat capacity at constant pressure: 195.1 ± 3.9 J/K/mol
[1]; 395.15 K, Crystal
  molar heat capacity at constant pressure: 199.6 ± 4 J/K/mol
[1]; 400.15 K, Crystal
  molar heat capacity at constant pressure: 203.3 ± 4.1 J/K/mol
[1]; 405.15 K, Crystal
  molar heat capacity at constant pressure: 205.7 ± 4.1 J/K/mol
[1]; 410.15 K, Crystal
  molar heat capacity at constant pressure: 209.1 ± 4.2 J/K/mol
[1]; 415.15 K, Crystal
  molar heat capacity at constant pressure: 212.2 ± 4.2 J/K/mol
[1]; 420.15 K, Crystal
  molar heat capacity at constant pressure: 215.5 ± 4.3 J/K/mol
[1]; 425.15 K, Crystal
  molar heat capacity at constant pressure: 218.8 ± 4.4 J/K/mol
[1]; 430.15 K, Crystal
  molar heat capacity at constant pressure: 222.8 ± 4.5 J/K/mol
[1]; 435.15 K, Crystal
  molar heat capacity at constant pressure: 226.2 ± 4.5 J/K/mol
[1]; 440.15 K, Crystal
  molar heat capacity at constant pressure: 230.2 ± 4.6 J/K/mol
[1]; 445.15 K, Crystal
  molar heat capacity at constant pressure: 234.7 ± 4.7 J/K/mol
[1]; 450.15 K, Crystal
  molar heat capacity at constant pressure: 239.4 ± 4.8 J/K/mol
[1]; 454.15 K, Crystal
  molar heat capacity at constant pressure: 243.2 ± 4.9 J/K/mol
[2]; Crystal
  Molar enthalpy of transition or fusion: 6.21 ± 0.0956 kcal/mol
[3]; Crystal
  Normal melting temperature: 201.1 ± 0.5 °C

## O=C(O)Cc1ccsc1 [3-thiopheneacetic acid]
[1]; 268.15 K, Crystal
  molar heat capacity at constant pressure: 151.1 ± 3 J/K/mol
[1]; 270.15 K, Crystal
  molar heat capacity at constant pressure: 152.6 ± 3.1 J/K/mol
[1]; 275.15 K, Crystal
  molar heat capacity at constant pressure: 155.6 ± 3.1 J/K/mol
[1]; 280.15 K, Crystal
  molar heat capacity at constant pressure: 158.5 ± 3.2 J/K/mol
[1]; 285.15 K, Crystal
  molar heat capacity at constant pressure: 160.8 ± 3.2 J/K/mol
[1]; 290.15 K, Crystal
  molar heat capacity at constant pressure: 163.6 ± 3.3 J/K/mol
[1]; 295.15 K, Crystal
  molar heat capacity at constant pressure: 166.6 ± 3.3 J/K/mol
[1]; 298.15 K, Crystal
  molar heat capacity at constant pressure: 168.4 ± 3.4 J/K/mol
[1]; 300.15 K, Crystal
  molar heat capacity at constant pressure: 169.8 ± 3.4 J/K/mol
[1]; 305.15 K, Crystal
  molar heat capacity at constant pressure: 172.7 ± 3.5 J/K/mol
[1]; 310.15 K, Crystal
  molar heat capacity at constant pressure: 175.3 ± 3.5 J/K/mol
[1]; 315.15 K, Crystal
  molar heat capacity at constant pressure: 178.8 ± 3.6 J/K/mol
[1]; 320.15 K, Crystal
  molar heat capacity at constant pressure: 182.7 ± 3.7 J/K/mol
[1]; 325.15 K, Crystal
  molar heat capacity at constant pressure: 186.8 ± 3.7 J/K/mol
[1]; 330.15 K, Crystal
  molar heat capacity at constant pressure: 190.6 ± 3.8 J/K/mol
[1]; 335.15 K, Crystal
  molar heat capacity at constant pressure: 193.9 ± 3.9 J/K/mol
[1]; 340.15 K, Crystal
  molar heat capacity at constant pressure: 198.7 ± 4 J/K/mol
[2]; Crystal
  Molar enthalpy of transition or fusion: 4.49 ± 0.143 kcal/mol
[3]; Crystal
  Normal melting temperature: 80.2 ± 0.5 °C

## O=S1(=O)CCOCC1 [1,4-oxathiane 4,4-dioxide]
[1]; 268.15 K, Crystal 2
  molar heat capacity at constant pressure: 134.2 ± 2.7 J/K/mol
[1]; 270.15 K, Crystal 2
  molar heat capacity at constant pressure: 135.4 ± 2.7 J/K/mol
[1]; 275.15 K, Crystal 2
  molar heat capacity at constant pressure: 137.3 ± 2.7 J/K/mol
[1]; 280.15 K, Crystal 2
  molar heat capacity at constant pressure: 139.3 ± 2.8 J/K/mol
[1]; 285.15 K, Crystal 2
  molar heat capacity at constant pressure: 141.7 ± 2.8 J/K/mol
[1]; 290.15 K, Crystal 2
  molar heat capacity at constant pressure: 144.2 ± 2.9 J/K/mol
[1]; 295.15 K, Crystal 2
  molar heat capacity at constant pressure: 146.6 ± 2.9 J/K/mol
[1]; 298.15 K, Crystal 2
  molar heat capacity at constant pressure: 147.9 ± 3 J/K/mol
[1]; 300.15 K, Crystal 2
  molar heat capacity at constant pressure: 148.9 ± 3 J/K/mol
[1]; 305.15 K, Crystal 2
  molar heat capacity at constant pressure: 151.2 ± 3 J/K/mol
[1]; 310.15 K, Crystal 2
  molar heat capacity at constant pressure: 153.1 ± 3.1 J/K/mol
[1]; 315.15 K, Crystal 2
  molar heat capacity at constant pressure: 155.3 ± 3.1 J/K/mol
[1]; 320.15 K, Crystal 2
  molar heat capacity at constant pressure: 157.6 ± 3.2 J/K/mol
[1]; 325.15 K, Crystal 2
  molar heat capacity at constant pressure: 159.9 ± 3.2 J/K/mol
[1]; 330.15 K, Crystal 2
  molar heat capacity at constant pressure: 162 ± 3.2 J/K/mol
[1]; 335.15 K, Crystal 2
  molar heat capacity at constant pressure: 164.1 ± 3.3 J/K/mol
[1]; 340.15 K, Crystal 2
  molar heat capacity at constant pressure: 166.9 ± 3.3 J/K/mol
[1]; 345.15 K, Crystal 2
  molar heat capacity at constant pressure: 170.3 ± 3.4 J/K/mol
[1]; 350.15 K, Crystal 2
  molar heat capacity at constant pressure: 172.8 ± 3.5 J/K/mol
[1]; 355.15 K, Crystal 2
  molar heat capacity at constant pressure: 175.5 ± 3.5 J/K/mol
[1]; 360.15 K, Crystal 2
  molar heat capacity at constant pressure: 177.7 ± 3.6 J/K/mol
[1]; 365.15 K, Crystal 2
  molar heat capacity at constant pressure: 180.1 ± 3.6 J/K/mol
[1]; 370.15 K, Crystal 2
  molar heat capacity at constant pressure: 182.5 ± 3.7 J/K/mol
[1]; 375.15 K, Crystal 2
  molar heat capacity at constant pressure: 185.6 ± 3.7 J/K/mol
[1]; 380.15 K, Crystal 2
  molar heat capacity at constant pressure: 188.6 ± 3.8 J/K/mol
[1]; 385.15 K, Crystal 2
  molar heat capacity at constant pressure: 191.5 ± 3.8 J/K/mol
[1]; 390.15 K, Crystal 2
  molar heat capacity at constant pressure: 194.7 ± 3.9 J/K/mol
[2]; Crystal 2
  Molar enthalpy of transition or fusion: 4.83 ± 0.12 kcal/mol
[3]; Crystal 1
  Normal melting temperature: 130.2 ± 0.4 °C

## COC(=O)Cc1ccsc1 [methyl 3-thiopheneacetate]
[1]; 298.15 K, Liquid
  molar heat capacity at constant pressure: 250.6 ± 4.9 J/K/mol
